According to PubChem BioAssay (NCI):
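Test compounds were applied to cells in 96-well plates for 48 hours at 5 doses. Here, GI50 denotes the concentration required for 50% inhibition of growth. TGI: concentration producing complete growth inhibition.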

system: NCI-H226 lung; assay: growth of human tumour cells (NCI), 48 h

CCOC(=O)C1(C(=O)OCC)C[C@H](C)[C@](C)(O)C1 and COc1cc(O)c2c(c1)OCC(Cc1ccc(O)cc1)C2=O (stereo not given) cannot be ordered by TGI: greater than 100 µM for the first, greater than 100 µM for the second.

First: COc1cc2c3c(n(CCNCCCNCCn4c5c(c6cc(OC)c(OC)cc6c4=O)C(=O)c4ccccc4-5)c(=O)c2cc1OC)-c1ccccc1C3=O
Second: Cc1ccc2c3c(c(=O)[nH]c2c1)C1(C(C#N)=C(N)O3)c2cc(Br)ccc2-c2ccc(Br)cc21
The TGI of the first is 1.5-fold lower: 3.04 µM for the first, 4.6 µM for the second.

Going from COc1cc2c3c(n(CCNCCCNCCn4c5c(c6cc(OC)c(OC)cc6c4=O)C(=O)c4ccccc4-5)c(=O)c2cc1OC)-c1ccccc1C3=O to Cc1ccc2c3c(c(=O)[nH]c2c1)C1(C(C#N)=C(N)O3)c2cc(Br)ccc2-c2ccc(Br)cc21, the GI50 rises from 0.3 µM to 1.9 µM (6.3-fold).

system: MOLT-4 leukemia; assay: growth of human tumour cells (NCI), 48 h

Compared with CCOC(=O)C1(C(=O)OCC)C[C@H](C)[C@](C)(O)C1, CC(C)(C)[Si](C)(C)OCC1OC(n2cc(I)c(N)nc2=O)C(O[Si](C)(C)C(C)(C)C)C1O[Si](C)(C)C(C)(C)C (stereo not given) is lower in TGI: greater than 100 µM for the first, 10.6 µM for the second.

Going from COc1cc2c3c(n(CCNCCCNCCn4c5c(c6cc(OC)c(OC)cc6c4=O)C(=O)c4ccccc4-5)c(=O)c2cc1OC)-c1ccccc1C3=O to COc1cc(/C=C2\CN(C)CC3=C2NC(=S)NC3c2cc(OC)c(OC)c(OC)c2)cc(OC)c1OC (stereo not given), the TGI rises from 0.0432 µM to greater than 100 µM.

First: COc1cc(O)c2c(c1)OCC(Cc1ccc(O)cc1)C2=O (stereo not given)
Second: Cc1ccc2c3c(c(=O)[nH]c2c1)C1(C(C#N)=C(N)O3)c2cc(Br)ccc2-c2ccc(Br)cc21
The TGI of the first is higher: greater than 100 µM for the first, 10.1 µM for the second.

With Cc1ccc2c3c(c(=O)[nH]c2c1)C1(C(C#N)=C(N)O3)c2cc(Br)ccc2-c2ccc(Br)cc21 the GI50 was 2.92 µM.

system: A498 renal; assay: growth of human tumour cells (NCI), 48 h

CCOC(=O)C1(C(=O)OCC)C[C@H](C)[C@](C)(O)C1 and COc1cc(O)c2c(c1)OCC(Cc1ccc(O)cc1)C2=O (stereo not given) cannot be ordered by TGI: greater than 100 µM for the first, greater than 100 µM for the second.

First: COc1cc2c3c(n(CCNCCCNCCn4c5c(c6cc(OC)c(OC)cc6c4=O)C(=O)c4ccccc4-5)c(=O)c2cc1OC)-c1ccccc1C3=O
Second: Cc1ccc2c3c(c(=O)[nH]c2c1)C1(C(C#N)=C(N)O3)c2cc(Br)ccc2-c2ccc(Br)cc21
The TGI of the first is 4-fold higher: 14.5 µM for the first, 3.61 µM for the second.

First: COc1cc2c3c(n(CCNCCCNCCn4c5c(c6cc(OC)c(OC)cc6c4=O)C(=O)c4ccccc4-5)c(=O)c2cc1OC)-c1ccccc1C3=O
Second: Cc1ccc2c3c(c(=O)[nH]c2c1)C1(C(C#N)=C(N)O3)c2cc(Br)ccc2-c2ccc(Br)cc21
The GI50 of the first is 2.2-fold higher: 3.12 µM for the first, 1.44 µM for the second.

system: KM12 colon; assay: growth of human tumour cells (NCI), 48 h

CCOC(=O)C1(C(=O)OCC)C[C@H](C)[C@](C)(O)C1 and COc1cc(O)c2c(c1)OCC(Cc1ccc(O)cc1)C2=O (stereo not given) cannot be ordered by TGI: greater than 100 µM for the first, greater than 100 µM for the second.

First: COc1cc2c3c(n(CCNCCCNCCn4c5c(c6cc(OC)c(OC)cc6c4=O)C(=O)c4ccccc4-5)c(=O)c2cc1OC)-c1ccccc1C3=O
Second: Cc1ccc2c3c(c(=O)[nH]c2c1)C1(C(C#N)=C(N)O3)c2cc(Br)ccc2-c2ccc(Br)cc21
The TGI of the first is 8.1-fold lower: 0.59 µM for the first, 4.76 µM for the second.

Going from COc1cc2c3c(n(CCNCCCNCCn4c5c(c6cc(OC)c(OC)cc6c4=O)C(=O)c4ccccc4-5)c(=O)c2cc1OC)-c1ccccc1C3=O to Cc1ccc2c3c(c(=O)[nH]c2c1)C1(C(C#N)=C(N)O3)c2cc(Br)ccc2-c2ccc(Br)cc21, the GI50 rises from 0.0754 µM to 1.67 µM (22-fold).

system: HCT-15 colon; assay: growth of human tumour cells (NCI), 48 h

Going from CCOC(=O)C1(C(=O)OCC)C[C@H](C)[C@](C)(O)C1 to CC(C)(C)[Si](C)(C)OCC1OC(n2cc(I)c(N)nc2=O)C(O[Si](C)(C)C(C)(C)C)C1O[Si](C)(C)C(C)(C)C (stereo not given), the TGI falls from greater than 100 µM to 39.9 µM.

COc1cc2c3c(n(CCNCCCNCCn4c5c(c6cc(OC)c(OC)cc6c4=O)C(=O)c4ccccc4-5)c(=O)c2cc1OC)-c1ccccc1C3=O and COc1cc(/C=C2\CN(C)CC3=C2NC(=S)NC3c2cc(OC)c(OC)c(OC)c2)cc(OC)c1OC (stereo not given) cannot be ordered by TGI: greater than 100 µM for the first, greater than 100 µM for the second.

Going from COc1cc(O)c2c(c1)OCC(Cc1ccc(O)cc1)C2=O (stereo not given) to Cc1ccc2c3c(c(=O)[nH]c2c1)C1(C(C#N)=C(N)O3)c2cc(Br)ccc2-c2ccc(Br)cc21, the TGI falls from greater than 100 µM to 5.54 µM.

Going from COc1cc2c3c(n(CCNCCCNCCn4c5c(c6cc(OC)c(OC)cc6c4=O)C(=O)c4ccccc4-5)c(=O)c2cc1OC)-c1ccccc1C3=O to Cc1ccc2c3c(c(=O)[nH]c2c1)C1(C(C#N)=C(N)O3)c2cc(Br)ccc2-c2ccc(Br)cc21, the GI50 falls from 54.2 µM to 2.23 µM (24-fold).

system: MALME-3M melanoma; assay: growth of human tumour cells (NCI), 48 h

Compared with CCOC(=O)C1(C(=O)OCC)C[C@H](C)[C@](C)(O)C1, CC(C)(C)[Si](C)(C)OCC1OC(n2cc(I)c(N)nc2=O)C(O[Si](C)(C)C(C)(C)C)C1O[Si](C)(C)C(C)(C)C (stereo not given) is lower in TGI: greater than 100 µM for the first, 34.6 µM for the second.

Going from COc1cc2c3c(n(CCNCCCNCCn4c5c(c6cc(OC)c(OC)cc6c4=O)C(=O)c4ccccc4-5)c(=O)c2cc1OC)-c1ccccc1C3=O to COc1cc(/C=C2\CN(C)CC3=C2NC(=S)NC3c2cc(OC)c(OC)c(OC)c2)cc(OC)c1OC (stereo not given), the TGI rises from 6.19 µM to greater than 100 µM.

First: COc1cc(O)c2c(c1)OCC(Cc1ccc(O)cc1)C2=O (stereo not given)
Second: Cc1ccc2c3c(c(=O)[nH]c2c1)C1(C(C#N)=C(N)O3)c2cc(Br)ccc2-c2ccc(Br)cc21
The TGI of the first is higher: greater than 100 µM for the first, 3.15 µM for the second.

Going from COc1cc2c3c(n(CCNCCCNCCn4c5c(c6cc(OC)c(OC)cc6c4=O)C(=O)c4ccccc4-5)c(=O)c2cc1OC)-c1ccccc1C3=O to Cc1ccc2c3c(c(=O)[nH]c2c1)C1(C(C#N)=C(N)O3)c2cc(Br)ccc2-c2ccc(Br)cc21, the GI50 rises from 0.884 µM to 1.51 µM (1.7-fold).

system: SK-MEL-5 melanoma; assay: growth of human tumour cells (NCI), 48 h

Compared with CCOC(=O)C1(C(=O)OCC)C[C@H](C)[C@](C)(O)C1, CC(C)(C)[Si](C)(C)OCC1OC(n2cc(I)c(N)nc2=O)C(O[Si](C)(C)C(C)(C)C)C1O[Si](C)(C)C(C)(C)C (stereo not given) is lower in TGI: greater than 100 µM for the first, 23.2 µM for the second.

Going from COc1cc2c3c(n(CCNCCCNCCn4c5c(c6cc(OC)c(OC)cc6c4=O)C(=O)c4ccccc4-5)c(=O)c2cc1OC)-c1ccccc1C3=O to COc1cc(/C=C2\CN(C)CC3=C2NC(=S)NC3c2cc(OC)c(OC)c(OC)c2)cc(OC)c1OC (stereo not given), the TGI rises from 22.5 µM to 65.7 µM (2.9-fold).

Going from COc1cc(O)c2c(c1)OCC(Cc1ccc(O)cc1)C2=O (stereo not given) to Cc1ccc2c3c(c(=O)[nH]c2c1)C1(C(C#N)=C(N)O3)c2cc(Br)ccc2-c2ccc(Br)cc21, the TGI falls from greater than 100 µM to 24.1 µM.

First: COc1cc2c3c(n(CCNCCCNCCn4c5c(c6cc(OC)c(OC)cc6c4=O)C(=O)c4ccccc4-5)c(=O)c2cc1OC)-c1ccccc1C3=O
Second: Cc1ccc2c3c(c(=O)[nH]c2c1)C1(C(C#N)=C(N)O3)c2cc(Br)ccc2-c2ccc(Br)cc21
The GI50 of the first is 2.1-fold lower: 4.93 µM for the first, 10.2 µM for the second.

system: TK-10 renal; assay: growth of human tumour cells (NCI), 48 h

CCOC(=O)C1(C(=O)OCC)C[C@H](C)[C@](C)(O)C1 was tested, and the TGI was greater than 100 µM.
